Measured values reported in EP4796125A1, “TREATMENT OF PATIENT WITH NEGATIVE P53 GENE MUTATION, POSITIVE KRAS GENE MUTATION AND POSITIVE BRCA MUTATION” (Ascentawits Pharmaceuticals, Ltd., priority 2023, dated 2025).

Legend:
H460 cells [1] = experiment: In vitro proliferation inhibition experiment (CTG, 72 hours), Example 20; format: cell-based
Experimental: (§1) • 1) H460 and HPAF-II cell suspensions were added to a 96-well plate (100 µL per well), with cell densities of 2000 cells/well and 20000 cells/well, respectively. • 2) The cells were cultured overnight in a 37°C, 5% CO2 incubator. • 3) Compound Treatment
(§2) Combination therapy: 24 hours after cell plating, each well was supplemented with 99 µL of growth medium. Then, 0.5 µL of Nutlin-3 or RITA was added to each well. The plate was gently shaken to ensure even mixing, and then placed in an incubator for 2 hours. Then, 0.5 µL of test compounds at different concentrations was added. The plate was gently shaken to ensure even mixing, and then placed in a 37°C, 5% CO2 incubator.
(§3) Monotherapy: 24 hours after cell plating, each well was supplemented with 99.5 µL of growth medium. Then, 0.5 µL of test compounds at different concentrations was added. The plate was gently shaken to ensure even mixing, and then placed in a 37°C, 5% CO2 incubator. • 4) The cell plate was placed in the incubator for 72 hours. • 5) The cell plate to be tested was placed at room temperature and equilibrated for 30 minutes, and 100 µL of medium was discarded from each well. • 6) 25 µL of CTG reagent was added to each well, placed on a fast shaker to shake for 2 minutes, and placed at room temperature for 30 minutes (protected from light). • 7) The chemiluminescence signal value was read using a multifunctional microplate reader with a reading time of 1000 ms, and the corresponding inhibition rate data were calculated.

HPAF-II cells [2] = experiment: Cell cycle G2/M arrest, PI staining and flow cytometry; format: cell-based, human; details: HPAF-II cells with p53 pathogenic mutations; 0.1 nM AST-3424, 5 µM Nutlin-3 (Figure 9)
Experimental: (§4) • 1) H460/HPAF-II cell suspensions were added to a 24-well plate, with a cell density of 100000 cells/well and 995 µL of medium per well. • 2) The cells were cultured overnight in a 37°C, 5% CO2 incubator. • 3) Compound Treatment
(§5) 24 hours after cell plating, according to the protocol, the experimental groups for each cell line were as follows: Monotherapy: 24 hours after cell plating, 5 µL of test compounds at different concentrations was added: 1% DMSO, 5 µM Nutlin-3, and 0.1 nM AST-3424. The plate was gently shaken to ensure even mixing, and then placed in a 37°C, 5% CO2 incubator.
• Cells were pretreated with AST-3424 for 2 hours, and then co-treatment with Nutlin-3 for 24 hours; • cells were pretreated with Nutlin-3 for 2 hours, and then co-treatment with AS -3424 for 24 hours; and • cells were co-treated with AST-3424 and Nutlin-3 for 24 hours. • 4) The cells were digested, centrifuged at 1000 g at 4°C, washed once with pre-cooled PBS, centrifuged at 1000 g at 4°C, and fixed with 1 mL of pre-cooled 70% ethanol at - 20°C overnight. • 5) The cells were centrifuged at 3000 g at 4°C, washed once with pre-cooled PBS (phosphate buffer), and centrifuged at 3000g at 4°C. PI staining solution was prepared. […] The cells were detected using a flow cytometer on the same day, and the proportions of cells in different cell cycle phases was analyzed using FlowJo.

[3] = tested on: Total P53, MDM2, P21, AKR1C3 proteins in H460 cells; experiment: WB detection ± Nutlin-3 in H460 and H460 P53 KO cells; format: cell-based; details: wild-type H460 cells; 5 µM Nutlin-3, 24h; compared with the H460 wild-type DMSO group (Figures 33, 34)
Experimental: • 1) H460 and H460 P53 KO cell suspensions were added to 24-well plates, with a cell density of 100000 cells/well and 995 µL of medium per well. • 2) The cells were cultured overnight in a 37°C, 5% CO2 incubator. • 3) Compound Treatment
24 hours after cell plating, according to the protocol, the experimental groups for each cell line were as follows: H460 WT non-treatment group, H460 P53 KO # 1 non-treatment group, H460 P53 KO # 7 non-treatment group, H460 P53 KO # 8 non-treatment group, H460 P53 KO # 12 non-treatment group, H460 WT 0.1% DMSO treatment group, H460 WT 5 µM Nutlin-3 treatment group, H460 P53 KO # 1 5 µM Nutlin-3 treatment group, H460 P53 KO # 7 5 µM Nutlin-3 treatment group, H460 P53 KO # 8 5 µM Nutlin-3 treatment group, and H460 P53 KO # 12 5 µM Nutlin-3 treatment group.
Monotherapy: 24 hours after cell plating, 5 µL of test compounds at different concentrations was added. […]
• 1) The cell plates were taken out and the medium supernatant was discarded. […] The cells were scraped off with a cell scraper, lysed on ice for 30 min, and centrifuged at 14000 rpm at 4°C for 10 min. • 2) Protein quantification was performed using the BCA assay. […] After the incubation, the membranes were washed three times with TBST (10 min per wash).The ECL luminescence solutions A and B (SuperSignal West Femto Maximum Sensitivity) were mixed and added to the membranes blotting dry. […]

HPAF-II cells [4] = experiment: In vitro proliferation inhibition experiment (CTG, 72 hours), Example 20; format: cell-based, human; details: Table 14, HPAF-II
Experimental: as §1, §2, §3

H460 cells [5] = experiment: Cell cycle G2/M arrest, PI staining and flow cytometry; format: cell-based; details: 0.1 nM AST-3424, 5 µM Nutlin-3, 24 hours, combination: AST-3424 added first (Figure 9)
Experimental: as §4, §5
• Cells were pretreated with AST-3424 for 2 hours, and then co-treatment with Nutlin-3 for 24 hours; • cells were pretreated with Nutlin-3 for 2 hours, and then co-treatment with AS -3424 for 24 hours; and • cells were co-treated with AST-3424 and Nutlin-3 for 24 hours. • 4) The cells were digested, centrifuged at 1000 g at 4°C, washed once with pre-cooled PBS, centrifuged at 1000 g at 4°C, and fixed with 1 mL of pre-cooled 70% ethanol at - 20°C overnight. • 5) The cells were centrifuged at 3000 g at 4°C, washed once with pre-cooled PBS (phosphate buffer), and centrifuged at 3000g at 4°C. PI staining solution was prepared. The cells were stained at 37°Cfor 30 minutes (protected from light), and stored in an ice bath (protected from light). The cells were detected using a flow cytometer on the same day, and the proportions of cells in different cell cycle phases was analyzed using FlowJo.
The remaining operations were similar to those of the above experiment, and the compound treatment was as follows: […]

[6] = tested on: Ser15-p53, Ser20-p53, Total p53, MDM2, and p21 proteins in H460 cells; experiment: WB detection of p53 protein pathway (Ser15-p53, Ser20-p53, Total p53, MDM2, p21); format: cell-based; details: second experiment: 0.1, 0.3, 1 nM AST-3424 ± 5 µM Nutlin-3, 24 hours, AST-3424 dose-dependent (Figure 16)
Experimental: • 1) H460 cell suspension was added to a 24-well plate, with a cell density of 80000 cells/well and 995 µL of medium per well. • 2) The cells were cultured overnight in a 37°C, 5% CO2 incubator. • 3) Compound Treatment
24 hours after cell plating, according to the protocol, the experimental groups for each cell line were as follows: • Monotherapy: 24 hours after cell plating, 5 µL of test compounds at different concentrations was added: 0.5% DMSO, 0.1 nM AST-3424, and 5 µM Nutlin-3. The plate was gently shaken to ensure even mixing, and then placed in a 37°C, 5% CO2 incubator. • Combination therapy: 24 hours after cell plating, 5 µL of test compounds at different concentrations was added. After pre-treatment with 5 µM Nutlin-3 for 2 hours, 0.1 nM AST-3424 was added. The plate was gently shaken to ensure even mixing, and then placed in a 37°C, 5% CO2 incubator.
4) Cell protein lysates were collected for WB detection.
• Adding 0.1 nM AST-3424 for pre-treatment for 2 hours, and then adding 5 µM Nutlin-3 for co-treatment for 22 hours; • Adding 0.3 nM AST-3424 for pre-treatment for 2 hours, and then adding 5 µM Nutlin-3 for co-treatment for 22 hours; • Adding 1 nM AST-3424 for pre-treatment for 2 hours, and then adding 5 µM Nutlin-3 for co-treatment for 22 hours. […]

**Q.** For `COc1ccc(C2=N[C@@H](c3ccc(Cl)cc3)[C@@H](c3ccc(Cl)cc3)N2C(=O)N2CCNC(=O)C2)c(OC(C)C)c1` [Nutlin-3], which “Inhibition rate result / %” value (H460 cells [1]; Table 12, H460, group 1: AST 0.5 nM, Nutlin-3 0.25 µM, AST + Nutlin-3 0.5+0.25) is on record?
**A.** 11.8%

**Q.** And the “Inhibition rate result / %” value (H460 cells [1]; Table 12, H460, group 2: AST 0.5 nM, Nutlin-3 0.5 µM, AST + Nutlin-3 0.5+0.5)?
**A.** 17.27%

**Q.** What about the “Inhibition rate result / %” value (H460 cells [1]; Table 12, H460, group 3: AST 0.5 nM, Nutlin-3 1 µM, AST + Nutlin-3 0.5+1) of the same molecule?
**A.** 18.3%

**Q.** And the “Inhibition rate result / %” value (H460 cells [1]; Table 12, H460, group 4: AST 1.5 nM, Nutlin-3 0.25 µM, AST + Nutlin-3 1.5+0.25)?
**A.** 11.8%

**Q.** What about the “Inhibition rate result / %” value (H460 cells [1]; Table 12, H460, group 5: AST 1.5 nM, Nutlin-3 0.5 µM, AST + Nutlin-3 1.5+0.5) of the same molecule?
**A.** 17.27%

**Q.** And the “Inhibition rate result / %” value (H460 cells [1]; Table 12, H460, group 6: AST 1.5 nM, Nutlin-3 1 µM, AST + Nutlin-3 1.5+1)?
**A.** 18.3%

**Q.** What about the “cell cycle (G0/G1, S, G2/M phases)” value (HPAF-II cells [2]) of the same molecule?
**A.** has no effect

**Q.** And the “expressions of MDM2, P53, P21, and AKR1C3 proteins” value [3]?
**A.** all upregulated

**Q.** And the “Inhibition rate result / %” value (HPAF-II cells [4]; group 1: AST 20 nM, Nutlin-3 7.5 µM, AST + Nutlin-3 20+7.5)?
**A.** 8.54%

**Q.** What about the “Inhibition rate result / %” value (HPAF-II cells [4]; group 2: AST 20 nM, Nutlin-3 10 µM, AST + Nutlin-3 20+10) of the same molecule?
**A.** 52.46%

**Q.** What about the “Inhibition rate result / %” value (HPAF-II cells [4]; group 3: AST 20 nM, Nutlin-3 15 µM, AST + Nutlin-3 20+15) of the same molecule?
**A.** 73.93%

**Q.** What about the “Inhibition rate result / %” value (HPAF-II cells [4]; group 4: AST 60 nM, Nutlin-3 7.5 µM, AST + Nutlin-3 60+7.5) of the same molecule?
**A.** 8.54%

**Q.** And the “Inhibition rate result / %” value (HPAF-II cells [4]; group 5: AST 60 nM, Nutlin-3 10 µM, AST + Nutlin-3 60+10)?
**A.** 52.46%

**Q.** And the “Inhibition rate result / %” value (HPAF-II cells [4]; group 6: AST 60 nM, Nutlin-3 15 µM, AST + Nutlin-3 60+15)?
**A.** 73.93%

**Q.** What about the “cell cycle (G0/G1, S, G2/M phases)” value (H460 cells [5]) of the same molecule?
**A.** does not significantly alter the cell cycle

**Q.** What about the “phosphorylation of p53 (Ser15-p53 and Ser20-p53), protein expression of total-p53, expression of MDM2 and p21” value [6] of the same molecule?
**A.** upregulates
